Source: patent US20230167127A1, “COMPOUNDS AND THEIR USE IN THE TREATMENT OF BACTERIAL INFECTION” (Hoffmann-La Roche Inc., priority 2020, published 2023)
Counter-ions that a name gives are not always drawn.

Test system: Escherichia coli ATCC 25922
Assay: 50% growth inhibitory concentration (IC50) determination, Iso-Sensitest broth dilution
Format: cell-based
Conditions: Escherichia coli, ATCC25922, 16 h, strain Escherichia coli ATCC 25922; 10-point broth dilution, optical density at 600 nm over 16 h; read-out: Escherichia coli growth inhibition IC50
Experimental: 50% Growth Inhibitory Concentration (IC50) Determination
The in vitro antimicrobial activity of the compounds was determined according to the following procedure:
The assay used a 10-point Iso-Sensitest broth dilution method to measure quantitatively the in vitro
ATCC 25922, Acinetobacter baumannii ATCC 17961, Klebsiella pneumoniae ATCC 43816 and Staphylococcus aureus ATCC 29213.
Stock compounds in DMSO were serially twofold diluted (e.g. range from 50 to 0.097 μM final concentration) in 384 wells microtiter plates and inoculated with 50 μL of the bacterial suspension in Iso-
ell of 50 μL/well. Microtiter plates were incubated at 35±2° C.
Bacterial cell growth was determined with the measurement of optical density at λ=600 nm each 20 minutes over a time course of 16 h.
Growth inhibition was calculated during the logarithmic growth of the bacterial cells with
Table 1 provides the 50% growth inhibitory concentrations (IC50) in micromoles per liter of the compounds of present invention obtained against the strain Escherichia coli ATCC 25922.

Compound | IC50
Cc1ncc(F)c2c1CC(CNC[C@@H](O)[C@H]1CN(c3cnc4c(n3)NC(=O)CO4)C(=O)O1)C2 (stereo partly drawn) [Example 360, 6-[(5R)-5-[(1R)-2-[(4-Fluoro-1-methyl-6,7-dihydro-5H-cyclopenta[c]pyridin-6-yl)methylamino]-1-hydroxyethyl]-2-oxo-1,3-oxazolidin-3-yl]-4H-pyrazino[2,3-b][1,4]oxazin-3-one; formic acid] | 319 nM
Cc1ncc(F)c2c1CC(NCCCc1cn(-c3cnc4c(n3)NC(=O)CO4)c(=O)o1)C2 (single isomer, unassigned; enantiomer a) [Example 367, 6-[5-[3-[(4-Fluoro-1-methyl-6,7-dihydro-5H-cyclopenta[c]pyridin-6-yl)amino]propyl]-2-oxo-1,3-oxazol-3-yl]-4H-pyrazino[2,3-b][1,4]oxazin-3-one, Enantiomer A] | < 97.7 nM
N#Cc1cccc2c1CC(CN[C@H]1CC[C@H](C3CN(c4ccc5c(n4)NC(=O)CO5)C(=O)O3)CC1)C2 (stereo partly drawn) [Example 100, 2-[[[trans-4-[2-oxo-3-(3-oxo-4H-pyrido[3,2-b][1,4]oxazin-6-yl)-1,3-oxazolidin-5-yl]cyclohexyl]amino]methyl]-2,3-dihydro-1H-indene-4-carbonitrile; formic acid] | 1260 nM
O=C1COc2ncc(N3CC(CCNCC4Cc5cc(OCc6cc[nH]n6)cc(F)c5C4)OC3=O)nc2N1 (stereo not shown) [Example 320, 6-[5-[2-[[4-Fluoro-6-(1H-pyrazol-3-ylmethoxy)-2,3-dihydro-1H-inden-2-yl]methylamino]ethyl]-2-oxo-1,3-oxazolidin-3-yl]-4H-pyrazino[2,3-b][1,4]oxazin-3-one; formic acid] | 202 nM
Cc1nccc2c1CC(NCCCc1cn(-c3cnc4c(n3)NC(=O)CO4)c(=O)o1)C2 (single isomer, unassigned; enantiomer a) [Example 369, 6-[5-[3-[(1-Methyl-6,7-dihydro-5H-cyclopenta[c]pyridin-6-yl)amino]propyl]-2-oxo-1,3-oxazol-3-yl]-4H-pyrazino[2,3-b][1,4]oxazin-3-one; formic acid, Enantiomer A] | 172 nM
Cc1ncc(F)c2c1CC(CNCCC1(C)CN(c3cnc4c(n3)NC(=O)CO4)C(=O)O1)C2 (stereo not shown) [Example 340, 6-[5-[2-[(4-fluoro-1-methyl-6,7-dihydro-5H-cyclopenta[e]pyridin-6-yl)methylamino]ethyl]-5-methyl-2-oxo-1,3-oxazolidin-3-yl]-4H-pyrazino[2,3-b][1,4]oxazin-3-one] | 358 nM
Cc1ncc2c(c1F)CC(CNCC[C@@H]1CN(c3cnc4c(n3)NC(=O)CO4)C(=O)O1)C2 (stereo partly drawn) [Example 339, 6-[(5R)-5-[2-[(4-fluoro-3-methyl-6,7-dihydro-5H-cyclopenta[c]pyridin-6-yl)methylamino]ethyl]-2-oxo-1,3-oxazolidin-3-yl]-4H-pyrazino[2,3-b][1,4]oxazin-3-one] | 145 nM
Cc1ncc(F)c2c1C[C@H](CNCC[C@H]1CN(c3cnc4c(n3)NC(=O)CO4)C(=O)O1)C2 [Example 429] | < 97.7 nM
NC1c2cc(OCC3(N)CC3)cc(Cl)c2CC1CNCCC1CN(c2cnc3c(n2)NC(=O)CO3)C(=O)O1 (racemic) [Example 282, 6-[2-Oxo-5-[2-[[rac-1,2-trans-1-amino-6-[(1-aminocyclopropyl)methoxy]-4-chloro-2,3-dihydro-1H-inden-2-yl]methylamino]ethyl]-1,3-oxazolidin-3-yl]-4H-pyrazino[2,3-b][1,4]oxazin-3-one; formic acid] | 374 nM

Results, then the molecule that gave them:

IC50 | Compound
844 nM | Cc1ncc(F)c2c1CC(N)(CCNCC1CN(c3ccc4c(n3)NC(=O)CO4)C(=O)O1)C2 (stereo not shown) [Example 280, 6-[5-[[2-(6-amino-4-fluoro-1-methyl-5,7-dihydrocyclopenta[c]pyridin-6-yl)ethylamino]methyl]-2-oxo-1,3-oxazolidin-3-yl]-4H-pyrido[3,2-b][1,4]oxazin-3-one]
453 nM | O=C1COc2ccc(N3CC(CNCC4Cc5cccc(Cl)c5C4)OC3=O)nc2N1 (stereo not shown) [Example 21, 6-[5-[[(4-chloro-2,3-dihydro-1H-inden-2-yl)methylamino]methyl]-2-oxo-1,3-oxazolidin-3-yl]-4H-pyrido[3,2-b][1,4]oxazin-3-one; formic acid]
< 97.7 nM | O=C1COc2ccc(N3CC(CCNCC4Cc5c(Cl)cccc5C4O)OC3=O)nc2N1 (racemic) [Example 230, 6-[2-Oxo-5-[2-[[rac-1,2-trans-4-chloro-1-hydroxy-2,3-dihydro-1H-inden-2-yl]methylamino]ethyl]-1,3-oxazolidin-3-yl]-4H-pyrido[3,2-b][1,4]oxazin-3-one]
< 97.7 nM | Cc1c(OCC2(N)CC2)nc(-c2nccs2)c2c1CC(CNCCC1CN(c3ccc4c(n3)NC(=O)CO4)C(=O)O1)C2 (stereo not shown) [Example 218, 6-[5-[2-[[3-[(1-aminocyclopropyl)methoxy]-4-methyl-1-(1,3-thiazol-2-yl)-6,7-dihydro-5H-cyclopenta[c]pyridin-6-yl]methylamino]ethyl]-2-oxo-1,3-oxazolidin-3-yl]-4H-pyrido[3,2-b][1,4]oxazin-3-one]
< 97.7 nM | NC1(COc2cc(F)c3c(c2F)CC(CNCCC2CN(c4cnc5c(n4)NC(=O)CO5)C(=O)O2)C3)CC1 (stereo not shown) [Example 408, 6-[5-[2-[[5-[(1-aminocyclopropyl)methoxy]-4,7-difluoro-2,3-dihydro-1H-inden-2-yl]methylamino]ethyl]-2-oxo-1,3-oxazolidin-3-yl]-4H-pyrazino[2,3-b][1,4]oxazin-3-one; formic acid]
< 97.7 nM | N#Cc1c(OCC2(N)CC2)ccc2c1CC(CNCCC1CN(c3ccc4c(n3)NC(=O)CO4)C(=O)O1)C2 (stereo not shown) [Example 124, 5-[(1-aminocyclopropyl)methoxy]-2-[[2-[2-oxo-3-(3-oxo-4H-pyrido[3,2-b][1,4]oxazin-6-yl)-1,3-oxazolidin-5-yl]ethylamino]methyl]-2,3-dihydro-1H-indene-4-carbonitrile hydrochloride]
< 97.7 nM | N#Cc1cccc2c1CC(CNCCC1CN(c3cnc4c(n3)NC(=O)CO4)C(=O)O1)C2 (stereo not shown) [Example 35, 2-[[2-[2-oxo-3-(3-oxo-4H-pyrazino[2,3-b][1,4]oxazin-6-yl)-1,3-oxazolidin-5-yl]ethylamino]methyl]-2,3-dihydro-1H-indene-4-carbonitrile]

Same assay, conditions: strain Escherichia coli ATCC 25922; 10-point broth dilution, optical density at 600 nm over 16 h; read-out: Escherichia coli growth inhibition IC50

Compound | IC50
N#Cc1cccc2c1CC(NC1CCC3(CC1)CN(c1ccc4c(n1)NC(=O)CO4)C(=O)O3)C2 (single isomer, unassigned; isomer b) [Example 40, 2-[[2-oxo-3-(3-oxo-4H-pyrido[3,2-b][1,4]oxazin-6-yl)-1-oxa-3-azaspiro[4.5]decan-8-yl]amino]-2,3-dihydro-1H-indene-4-carbonitrile. Isomer B; formic acid] | 153 nM
Cc1ncc(F)c2c1CC(NCC(O)CC1CN(c3cnc4c(n3)NC(=O)CO4)C(=O)O1)C2 (single isomer, unassigned; isomer d) [Example 316, 6-[2-Oxo-5-[3-[(4-fluoro-1-methyl-6,7-dihydro-5H-cyclopenta[c]pyridin-6-yl)amino]-2-hydroxypropyl]-1,3-oxazolidin-3-yl]-4H-pyrazino[2,3-b][1,4]oxazin-3-one; formic acid, Isomer D] | 957 nM
N#Cc1cccc2c1CC(NCC(O)CC1CN(c3cnc4c(n3)NC(=O)CO4)C(=O)O1)C2 (single isomer, unassigned; isomer b) [Example 82, 2-[[2-hydroxy-3-[2-oxo-3-(3-oxo-4H-pyrazino[2,3-b][1,4]oxazin-6-yl)-1,3-oxazolidin-5-yl]propyl]amino]-2,3-dihydro-1H-indene-4-carbonitrile, Isomer B; formic acid] | 152 nM
